Experimental data published in US8362031B2, “Lonidamine analogues and treatment of polycystic kidney disease” (University of Kansas, priority 2004, dated 2013).
Entries after “also recorded” stand apart in the source; their conditions may differ.

Tests used:
rats = test: Toxicology: organs sectioned and examined after dosing; assay type: in vivo
HSP90 = biological target: T1, HSP90 (Mus musculus, UniProt P11499); test: Affinity chromatography of cell lysate with biotinylated RC-MC-110, drug specific elution; assay type: binding; settings: TM4 sertoli cell (mouse) and ID8 cell lysates, avidin-sepharose column
T1 construct: Wash four 150 mm plates of TM4 cells (sertoli cells) or ID-8 cells (ovarian cancer) once with PBS; endogenous in cells; host or cells: TM4 Sertoli cells (mouse) and ID8 ovarian cancer cells, cell lysate
T1 sequence (P11499 whole entry): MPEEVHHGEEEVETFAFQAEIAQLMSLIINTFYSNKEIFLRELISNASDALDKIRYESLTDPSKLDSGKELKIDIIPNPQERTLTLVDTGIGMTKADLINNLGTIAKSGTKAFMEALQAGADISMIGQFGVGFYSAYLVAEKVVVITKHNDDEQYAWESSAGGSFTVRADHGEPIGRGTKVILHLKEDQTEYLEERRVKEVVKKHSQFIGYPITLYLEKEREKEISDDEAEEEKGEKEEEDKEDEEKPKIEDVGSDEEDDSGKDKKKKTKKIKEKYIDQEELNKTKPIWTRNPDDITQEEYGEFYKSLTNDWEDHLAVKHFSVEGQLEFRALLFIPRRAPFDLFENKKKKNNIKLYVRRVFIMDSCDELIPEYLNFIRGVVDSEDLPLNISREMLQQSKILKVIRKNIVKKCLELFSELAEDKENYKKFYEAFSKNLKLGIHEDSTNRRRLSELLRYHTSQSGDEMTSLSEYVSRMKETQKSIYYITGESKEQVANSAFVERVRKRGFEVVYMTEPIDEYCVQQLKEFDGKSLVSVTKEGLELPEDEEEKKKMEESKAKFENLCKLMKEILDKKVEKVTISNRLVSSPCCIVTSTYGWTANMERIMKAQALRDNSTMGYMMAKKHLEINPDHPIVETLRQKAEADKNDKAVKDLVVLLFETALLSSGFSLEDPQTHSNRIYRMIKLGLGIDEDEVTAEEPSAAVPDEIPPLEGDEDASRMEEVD
Method: To analyze the binding of the compounds of the present invention, the following procedure is used.
2. Wash four 150 mm plates of TM4 cells (sertoli cells) or ID-8 cells (ovarian cancer) once with PBS (20 mM concentration pH 7.5). Add enough volume to trypsinize cells. Aspirate and spin cells for 10 minutes at 4° C. at 250×g. Add enough Lysis buffer to the cells.
5. Remove the cell lysate and apply the sample into a 2 ml avidin-sepharose (tetramer form) column (pre-equilibrated with 50 mM Tris-HCl/0.001% NP-40, pH 7.4) to remove native biotinylated compounds.
6. Take 2.7 ml of pre-cleared cell lysate and incubate the sample with RC-MC-110.
Tube 1: 2.7 ml of pre-cleared lysate plus 150 μl of 1.2 mg/ml biotinylated RC-MC-110+150 μl of DMSO (maintaining the same amount of DMSO in both tubes).
Tube 2: 2.7 ml of pre-cleared lysate plus 150 μl of 1.2 mg/ml of biotinylated RC-MC-110 (RC-MC-150, see structure below), and add 150 μl of 12 mg/ml RC-MC-110 stock. Incubate the sample overnight at […] on a rocking platform (or gentle stirring) with gentle agitation.
7. Load samples on an avidin-sepharose column pre-equilibrated with buffer (50 mM Tris-HCl pH 7.4, 0.1% NP-40=TD buffer). Wash column until background is reached.
8. Wash column with 2.5 ml of 0.6 mg/ml of RC-MC-110 in TD buffer (stock 12 mg/ml) until peak elutes (if any) and stable background. Pool fractions.

Male Long Evans rats = test: In vivo antispermatogenic testing in Long Evans rats
fruitfly = test: Reproduction of fruitfly; assay type: in vivo, Drosophila (fruitfly)
Source text: Several known Hsp90 inhibitors are listed above. With regard to HSP90, RC-MC-110 likely a novel inhibitor of the N-terminal ATP binding site or a novel site on Hsp90. It should be noted that mutants of Hsp90 in Drosophila (fruitfly) produce sterile males and females. […] Genetics. 1999 March; 151(3):1065-79.

[1] = system: ovarian (ID8), taxol-resistant ovarian (ID8), prostate (LNCaP and PC-3), kidney (293); test: Growth of cancer cell lines in vitro; assay type: cell-based; settings: all cell lines named
Method: (§1) When RC-MC-110 is added to a variety of cancer cells: ovarian (ID8), taxol-resistant ovarian (ID8), prostate (LNCaP and PC-3), kidney (293).

[2] = system: ID8 cells (ovarian cancer); test: ID8 cell growth in vitro; assay type: cell-based
Method: as §1

[3] = system: E15.5 kidneys from Pkd1+/+, +/−, and −/− mice; test: Metanephric organ culture, cAMP-driven cyst formation; assay type: cell-based, mouse
Method: To determine whether gamendazole alters the cyst-forming process in response to cAMP, kidneys from Pkd1+/+, +/−, and −/− mice were placed in metanephric culture at E15.5 and treated with 100 uM 8-Br-cAMP with or without gamendazole (100 nM-10 uM) for 4 days.
The length of time that Gamendazole was able to block fluid secretion in embryonic kidneys using a washout technique was studied. Briefly, E15.5 kidneys were treated with cAMP alone or with cAMP plus 5 microM Gamendazole. 24 hrs later, culture medium was removed from the GMZ+cAMP-treated kidneys and was replaced with fresh medium containing cAMP only. […] This was evident by the reduced number and size of the tubule dilations on Day 4.

NKCC1 = test: Immunostaining of organ culture kidney sections; assay type: cell-based, mouse; settings: 1-5 uM, cAMP-treated E15.5 organ culture kidneys, images not shown
Method: To also test whether GMZ can target the Hsp90 client protein NKCC1, sections of E15.5 organ culture kidneys treated with cAMP or cAMP plus GMZ were immunostained with an antibody for NKCC1 (methods in Magenheimer, et al., 2006). […] Consistent with the known localization of NKCC1 in the kidney, the immunolabeling appeared to be decreased in the metanephric mesenchyme and collecting ducts when GMZ was used at 1-5 uM.

Cdk4 = test: Western blot of treated ADPKD cells; assay type: cell-based, human; settings: 50 uM
Method: (§2) Gamendazole (GMZ) was tested to determine if treatment decreases Hsp90 client protein levels in ADPKD cells. Briefly, ADPKD cells were treated with 50 μM GMZ for 24, 48 or 72 hours. Proteins from 20 μg total cell lysate were separated by SDS-PAGE, transferred to a PVDF membrane and probed with antibodies against the Hsp90 client proteins ErbB2 (185 kD), and cdk4 (34 kD).

ErbB2 = test: Western blot of treated ADPKD cells; assay type: cell-based, human; settings: 50 uM
Method: as §2

[4] = 100 nM-10 uM for 4 days with 100 uM 8-Br-cAMP

Q: Which “Toxicology: liver, lung, pancreas, spleen, heart and kidney (histology)” value (from here on “Toxicology: liver, lung, pancreas”) (rats; 6 mg/kg, follow-up experiment, findings per animal) does the source give for `O=C(O)/C=C/c1nn(Cc2ccc(Cl)cc2Cl)c2cc(C(F)(F)F)ccc12` [RC-MC-110, trans 3-[1-(2,4-dichlorobenzyl)-6-trifluoromethyl-1H-indazol-3-yl]-acrylic acid] here?
A: Its value is “The liver did have isolated, scattered, small necrotic patches, resembling what is often found in subacute hepatic necrosis”.

Q: What about the “Toxicology: liver, lung, pancreas” value (rats; 12 mg/kg, follow-up experiment, findings per animal) of the same molecule?
A: Its value is “The liver did have isolated, scattered, small necrotic patches, resembling what is often found in subacute hepatic necrosis; also recorded: The liver contained small, patchy areas of necrosis resembling what is often described for subacute hepatic necrosis; also recorded: The lungs also had multiple, small hemorrhagic areas around the respiratory and terminal bronchioles”.

Q: And the “Toxicology: liver, lung, pancreas” value (rats; 25 mg/kg, two animals examined, findings per animal)?
A: The value was “liver, lung, pancreas, spleen, heart and kidney all appear within normal limits”.

Q: What about the “Toxicology: liver, lung, pancreas” value (rats; 200 mg/kg, two animals examined, findings per animal) of the same molecule?
A: The value was “liver, lung, pancreas, spleen, heart and kidney all appear within normal limits”.

Q: What about the “Toxicology: liver, lung, pancreas” value (rats; oral 1.5 mg/kg, two animals, corn oil) of the same molecule?
A: The value was “the liver showed a small number of randomly scattered, small necrotic patches, but was otherwise normal”.

Q: What about the “Toxicology: liver, lung, pancreas” value (rats; oral 1.5 mg/kg, two animals, corn oil, 1.5 mg/kg) of the same molecule?
A: Its value is “The other animal receiving 1.5 mg/kg appeared normal”.

Q: And the “Toxicology: liver, lung, pancreas” value (rats; oral 6 mg/kg, 3 mg/kg, 1 mg/kg and 0.5 mg/kg, two animals from each dose level, corn oil)?
A: Its value is “liver, lung, pancreas, spleen, heart and kidney all appeared within normal limits”.

Q: And the “Binding of HSP90” value (HSP90)?
A: Its value is “bind heat shock 90 proteins; also recorded: drug specific elution of Hsp90”.

Q: And the “Mortality (25 mg/kg)” value (Male Long Evans rats; 25 mg/kg single i.p. injection, […])?
A: Its value is 0/5.

Q: What about the “Response 25 mg/kg” value (Male Long Evans rats; 25 mg/kg single i.p. injection, animals responding out of animals surviving, five days following injection) of the same molecule?
A: Its value is 5/5.

Q: And the “Mortality (200 mg/kg)” value (Male Long Evans rats; 200 mg/kg single i.p. injection, […])?
A: Its value is 3/5.

Q: What about the “Response 200 mg/kg” value (Male Long Evans rats; 200 mg/kg single i.p. injection, animals responding out of animals surviving, five days following injection) of the same molecule?
A: The value was 2/2.

Q: And the “Potency on fruitfly reproduction, compared with lonidamine” value (fruitfly; in vivo)?
A: Its value is “more potent than lonidamine”.

Q: And the Reproduction of fruitfly (fruitfly; provided to a fruitfly)?
A: The Reproduction of fruitfly was “inhibited reproduction”.

Q: What about the “Growth of cancer cell lines in vitro” value [1] of the same molecule?
A: The value was “inhibited by RC-MC-110 in a dose-dependent manner”.

Q: What about the “Sensitivity of ID8 cell growth, compared with lonidamine” value [2] of the same molecule?
A: Its value is “more sensitive to RC-MC-110 than lonidamine”.

Q: For `O=C(O)CCc1nn(Cc2ccc(Cl)cc2Cl)c2cc(C(F)(F)F)ccc12` [GMZ, 3-[1-(2,4-dichlorobenzyl)-6-trifluoromethyl-1H-indazol-3-yl]-propionic acid], which “Toxicity to the kidneys in metanephric culture” value [3, 4] is on record?
A: The value was “did not appear to be toxic to the kidneys”.

Q: What about the cystic dilation [3, 4] of the same molecule?
A: The cystic dilation was “significantly inhibited cystic dilation”.

Q: What about the “cyst formation in Pkd1+/− kidneys” value ([3]; 1-2 uM) of the same molecule?
A: The value was “essentially preventing cyst formation”.

Q: What about the “cyst reduction in Pkd1−/− kidneys” value ([3]; 5-10 uM, data not shown) of the same molecule?
A: Its value is “dramatic cyst reduction”.

Q: What about the “cAMP-mediated cyst formation in heterozygous and null metanephric kidneys” value ([3]; 5 microM) of the same molecule?
A: The value was “significantly inhibited cAMP-mediated cyst formation”.

Q: What about the “cystic index, three Pkd1 genotypes” value ([3]; 5 microM) of the same molecule?
A: The value was “dramatic decrease in cystic index”.

Q: And the “Persistence of inhibition after washout” value ([3]; 5 microM for 24 hrs, then cAMP only, read on Day 4)?
A: The value was “the inhibitory effects appeared to persist in culture”.

Q: What about the “Size of kidneys in organ culture” value ([3]; compared to untreated counterparts) of the same molecule?
A: The value was “somewhat reduced in size”.

Q: What about the NKCC1 staining (NKCC1) of the same molecule?
A: The NKCC1 staining was “NKCC1 staining was reduced”.

Q: What about the “levels of the Hsp90 client protein Cdk4” value (Cdk4) of the same molecule?
A: Its value is “decreased levels”.

Q: What about the “levels of the Hsp90 client protein ErbB2” value (ErbB2) of the same molecule?
A: Its value is “decreased levels”.
